Data set [1] is described as follows: Inhibition of ABCB1 (unknown origin) expressed in HEK293T cells assessed as reduction in paclitaxel IC50 at 1 uM pre-incubated for 4 hrs followed by paclitaxel addition and measured after 72 hrs by MTT assay. On the technique in general: Tetrazolium dyes change colour on reduction, which living cells bring about.
A short description of data set [2]: Inhibition of ABCB1 (unknown origin) expressed in HEK293T cells assessed as reduction in paclitaxel IC50 at 2 uM pre-incubated for 4 hrs followed by paclitaxel addition and measured after 72 hrs by MTT assay.
Data set [3] in a line: Inhibition of ABCB1 (unknown origin) expressed in HEK293T cells assessed as reduction in colchicine IC50 at 1 uM pre-incubated for 4 hrs followed by colchicine addition and measured after 72 hrs by MTT assay.
Data set [4] in a line: Inhibition of ABCB1 (unknown origin) expressed in HEK293T cells assessed as reduction in colchicine IC50 at 2 uM pre-incubated for 4 hrs followed by colchicine addition and measured after 72 hrs by MTT assay.
Data set [5] in a line: Inhibition of ABCB1 (unknown origin) expressed in HEK293T cells assessed as reduction in paclitaxel IC50 at 0.5 uM pre-incubated for 4 hrs followed by paclitaxel addition and measured after 72 hrs by MTT assay.
Data set [6] can be described thus: Inhibition of ABCB1 (unknown origin) expressed in HEK293T cells assessed as reduction in colchicine IC50 at 0.5 uM pre-incubated for 4 hrs followed by colchicine addition and measured after 72 hrs by MTT assay.

Experimental findings from BindingDB's records for doi:10.1021/acs.jmedchem.1c01452 (Zhengzhou University, 2021) are described below.

One may read the IC50 as the concentration that gives 50% inhibition. In the case of `COc1cc2ncnc(-c3c(-c4ccccc4)n(Cc4ccccc4Br)c4ccccc34)c2cc1OCCCN1CCOCC1`, the IC50 was found to be 12.2 µM in data set [1]; 3.6 µM in data set [2]; 101 µM in data set [3]; 22.2 µM in data set [4]; 30.5 µM in data set [5]; 321 µM in data set [6].
